The source made the active and inactive calls.
Tests used:
[1] = molecular target: Voltage-dependent T-type calcium channel subunit alpha-1H (Homo sapiens, UniProt O95180); experiment: human CACNA1H calcium influx blockade – cell-based, synthetic library set 1, calcium flux (AID 493022); type: functional
[2] = system: Streptococcus sp. 'group A'; experiment: Streptococcus pyogenes SK(-)GAS viability under kanamycin – luminescence, BacTiterGlo, confirmation, counter-screen for streptokinase expression inhibitor project, dose response (AID 1900); type: functional, organism-based
[3] = molecular target: T1, Streptokinase A (Streptococcus pyogenes serotype M1, UniProt P10520); experiment: viability-normalized secreted streptokinase activity reduction – plasminogen activation absorbance, OD405, dose response (AID 1914); type: functional, Streptococcus pyogenes M1 GAS;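 note: secreted streptokinase activity via plasminogen activation per viability signal from cell pellet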
T1 sequence (P10520 whole entry): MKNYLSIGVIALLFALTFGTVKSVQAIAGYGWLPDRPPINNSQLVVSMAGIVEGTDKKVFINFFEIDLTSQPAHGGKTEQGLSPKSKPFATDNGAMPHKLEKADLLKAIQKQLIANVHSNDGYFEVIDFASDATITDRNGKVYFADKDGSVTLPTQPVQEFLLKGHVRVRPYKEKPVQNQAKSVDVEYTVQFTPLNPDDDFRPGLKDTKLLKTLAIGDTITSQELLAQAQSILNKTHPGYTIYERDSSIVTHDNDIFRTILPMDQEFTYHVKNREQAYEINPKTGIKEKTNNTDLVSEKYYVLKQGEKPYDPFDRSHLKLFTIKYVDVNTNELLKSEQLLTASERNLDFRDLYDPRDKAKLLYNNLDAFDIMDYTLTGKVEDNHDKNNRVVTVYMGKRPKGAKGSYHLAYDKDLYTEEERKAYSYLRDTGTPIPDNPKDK

[4] = viability of PTEN-deleted HCT116 cells – cell-based, HCT116 PTEN knockout, dose response (AID 1047); type: functional;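 note: HCT116 colon tumor cells with PTEN knocked out; cells exposed to compound for 60 hours before readout; potency for loss of cell viability measured by luminescence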
[5] = viability of HCT116 lacking mutant beta-catenin – cell-based, human colon tumor, dose response (AID 1045); type: functional;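 note: HCT116 colon tumor cells with beta catenin knocked out; cells exposed to compound for 60 hours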
[6] = system: Streptococcus; experiment: GAS UMAA2166 growth inhibition – luminescence, BacTiterGlo, counter-screen for streptokinase expression inhibitor project, dose response (AID 1915); type: functional, organism-based;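 note: potency for reduction of bacterial viability or growth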
[7] = molecular target: T2, Short transient receptor potential channel 4 (Mus musculus, UniProt Q9QUQ5); experiment: potentiation of DAMGO-evoked TRPC4 calcium signal – cell-based, HEK293 TRPC4/mu-opioid, Fluo-4 calcium, EC20 DAMGO, dose response (AID 434941); type: functional
T2 sequence (Q9QUQ5 whole entry): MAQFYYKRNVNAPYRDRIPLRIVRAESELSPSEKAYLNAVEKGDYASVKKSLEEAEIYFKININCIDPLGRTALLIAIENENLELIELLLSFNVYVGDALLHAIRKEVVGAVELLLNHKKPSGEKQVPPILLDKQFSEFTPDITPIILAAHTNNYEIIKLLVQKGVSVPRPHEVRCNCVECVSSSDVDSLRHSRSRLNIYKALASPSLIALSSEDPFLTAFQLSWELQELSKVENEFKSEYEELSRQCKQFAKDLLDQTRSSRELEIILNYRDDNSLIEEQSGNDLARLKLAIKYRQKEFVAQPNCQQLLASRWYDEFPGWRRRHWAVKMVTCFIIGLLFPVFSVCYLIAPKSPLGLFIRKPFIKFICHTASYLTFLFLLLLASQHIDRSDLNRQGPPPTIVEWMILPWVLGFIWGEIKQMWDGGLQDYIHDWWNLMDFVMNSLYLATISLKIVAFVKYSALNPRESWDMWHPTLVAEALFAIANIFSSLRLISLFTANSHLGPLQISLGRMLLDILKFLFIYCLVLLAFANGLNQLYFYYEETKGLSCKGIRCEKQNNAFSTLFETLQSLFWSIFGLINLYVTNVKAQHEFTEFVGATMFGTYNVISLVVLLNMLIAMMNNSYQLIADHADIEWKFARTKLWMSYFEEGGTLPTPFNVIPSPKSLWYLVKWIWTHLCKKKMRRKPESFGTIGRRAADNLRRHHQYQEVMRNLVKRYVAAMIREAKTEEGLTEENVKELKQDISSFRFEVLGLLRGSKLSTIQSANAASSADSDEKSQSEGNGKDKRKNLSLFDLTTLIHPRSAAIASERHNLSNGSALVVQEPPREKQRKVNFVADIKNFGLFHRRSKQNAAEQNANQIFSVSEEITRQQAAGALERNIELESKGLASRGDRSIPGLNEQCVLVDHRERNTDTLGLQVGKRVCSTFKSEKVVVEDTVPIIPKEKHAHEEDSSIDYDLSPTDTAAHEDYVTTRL

[8] = molecular target: T3, Corticotropin-releasing factor receptor 2/Corticotropin-releasing factor-binding protein (Homo sapiens, UniProt P24387+Q13324); experiment: activators of CRF receptor 2 with binding protein – uHTS hits, confirmation (AID 602473); type: functional; conditions: read-out: EC50_Mean
T3 sequence (Q13324 whole entry): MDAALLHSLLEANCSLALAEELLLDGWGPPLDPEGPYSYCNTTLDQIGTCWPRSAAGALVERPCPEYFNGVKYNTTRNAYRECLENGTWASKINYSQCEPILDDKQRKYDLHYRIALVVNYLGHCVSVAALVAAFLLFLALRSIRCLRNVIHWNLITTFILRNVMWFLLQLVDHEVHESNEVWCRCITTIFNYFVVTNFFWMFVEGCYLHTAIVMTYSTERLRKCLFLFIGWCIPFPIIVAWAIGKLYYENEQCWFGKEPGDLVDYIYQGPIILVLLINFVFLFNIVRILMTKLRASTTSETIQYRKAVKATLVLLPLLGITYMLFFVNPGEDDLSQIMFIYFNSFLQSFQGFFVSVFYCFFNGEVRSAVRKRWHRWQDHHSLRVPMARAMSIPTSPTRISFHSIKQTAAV
T3 sequence (P24387 whole entry): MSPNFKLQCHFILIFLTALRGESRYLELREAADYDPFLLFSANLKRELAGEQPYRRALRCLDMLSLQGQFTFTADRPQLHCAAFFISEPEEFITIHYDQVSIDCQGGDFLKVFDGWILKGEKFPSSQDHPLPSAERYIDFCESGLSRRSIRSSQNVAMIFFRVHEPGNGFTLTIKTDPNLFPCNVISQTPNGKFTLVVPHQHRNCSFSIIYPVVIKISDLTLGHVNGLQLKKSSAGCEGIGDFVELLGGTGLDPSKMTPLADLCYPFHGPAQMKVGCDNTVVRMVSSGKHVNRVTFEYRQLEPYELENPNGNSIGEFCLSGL

[9] = molecular target: T4, Coagulation factor XII (Homo sapiens, UniProt P00748); experiment: activated coagulation factor XII inhibitor potency, concentration-effect curve, cell-free (AID 716); type: functional
T4 sequence (P00748 whole entry): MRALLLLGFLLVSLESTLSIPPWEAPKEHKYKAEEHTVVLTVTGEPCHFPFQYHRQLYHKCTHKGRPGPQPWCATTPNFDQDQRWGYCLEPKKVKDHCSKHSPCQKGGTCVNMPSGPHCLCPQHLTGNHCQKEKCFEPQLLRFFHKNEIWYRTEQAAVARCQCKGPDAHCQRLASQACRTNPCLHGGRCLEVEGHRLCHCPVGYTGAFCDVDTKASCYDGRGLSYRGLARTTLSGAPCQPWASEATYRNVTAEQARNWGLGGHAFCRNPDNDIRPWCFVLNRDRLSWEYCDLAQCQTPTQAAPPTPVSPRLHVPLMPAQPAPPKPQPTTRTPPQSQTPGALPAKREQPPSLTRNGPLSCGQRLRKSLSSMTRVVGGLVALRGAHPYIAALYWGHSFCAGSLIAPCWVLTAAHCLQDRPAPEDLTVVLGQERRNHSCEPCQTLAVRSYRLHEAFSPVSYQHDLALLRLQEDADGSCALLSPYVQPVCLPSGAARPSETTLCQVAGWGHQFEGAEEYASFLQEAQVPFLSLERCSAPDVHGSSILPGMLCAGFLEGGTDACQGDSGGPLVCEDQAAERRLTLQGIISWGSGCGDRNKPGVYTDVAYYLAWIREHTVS

[10] = molecular target: T5, Tyrosine-protein phosphatase non-receptor type 7 (Homo sapiens, UniProt P35236); experiment: redox-active compounds inhibiting HePTP phosphatase – biochemical, fluorescence, mechanism study (AID 2068); type: functional
T5 sequence (P35236 whole entry): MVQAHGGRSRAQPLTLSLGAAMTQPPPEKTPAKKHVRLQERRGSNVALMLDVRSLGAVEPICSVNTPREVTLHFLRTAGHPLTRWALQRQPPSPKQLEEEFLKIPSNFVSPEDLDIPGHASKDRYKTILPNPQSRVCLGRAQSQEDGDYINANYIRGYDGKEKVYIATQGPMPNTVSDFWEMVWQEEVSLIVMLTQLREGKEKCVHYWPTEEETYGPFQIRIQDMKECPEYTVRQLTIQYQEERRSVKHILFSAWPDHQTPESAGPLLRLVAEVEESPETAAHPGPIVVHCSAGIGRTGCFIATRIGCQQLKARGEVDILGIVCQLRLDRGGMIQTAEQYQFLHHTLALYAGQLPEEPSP

[11] = molecular target: Dual specificity protein phosphatase 3 (Homo sapiens, UniProt P51452); experiment: SAR VHR1 Fluorescent Assay for In Vitro dose response studies Set 2. [Related pubchem assays (depositor defined):AID1654, AID1661, AID1878]; type: functional
Sequence of Dual specificity protein phosphatase 3 (P51452 whole entry): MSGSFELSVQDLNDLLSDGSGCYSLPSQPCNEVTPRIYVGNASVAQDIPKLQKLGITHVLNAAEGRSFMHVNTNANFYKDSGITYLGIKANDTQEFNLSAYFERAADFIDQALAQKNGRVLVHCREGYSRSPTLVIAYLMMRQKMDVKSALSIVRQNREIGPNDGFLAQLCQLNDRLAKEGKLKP

[12] = molecular target: T6, Dual specificity protein phosphatase 6 (Rattus norvegicus, UniProt Q64346); type: functional;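 note: confirmatory in vitro dose-response testing of MKP-3 inhibition; recombinant His-tagged MKP-3 made in E. coli BL21 with OMFP substrate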
T6 sequence (Q64346 whole entry): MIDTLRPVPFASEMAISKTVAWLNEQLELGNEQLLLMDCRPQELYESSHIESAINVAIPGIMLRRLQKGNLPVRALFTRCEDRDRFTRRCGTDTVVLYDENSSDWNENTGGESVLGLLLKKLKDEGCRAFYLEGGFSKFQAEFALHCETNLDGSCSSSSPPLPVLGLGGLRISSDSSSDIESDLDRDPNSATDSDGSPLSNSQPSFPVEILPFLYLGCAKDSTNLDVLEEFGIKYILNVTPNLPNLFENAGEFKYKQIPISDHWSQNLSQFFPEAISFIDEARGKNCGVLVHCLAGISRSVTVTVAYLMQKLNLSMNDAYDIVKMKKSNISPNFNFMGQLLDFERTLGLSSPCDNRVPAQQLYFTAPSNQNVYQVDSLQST

Sequence of Voltage-dependent T-type calcium channel subunit alpha-1H (O95180 whole entry): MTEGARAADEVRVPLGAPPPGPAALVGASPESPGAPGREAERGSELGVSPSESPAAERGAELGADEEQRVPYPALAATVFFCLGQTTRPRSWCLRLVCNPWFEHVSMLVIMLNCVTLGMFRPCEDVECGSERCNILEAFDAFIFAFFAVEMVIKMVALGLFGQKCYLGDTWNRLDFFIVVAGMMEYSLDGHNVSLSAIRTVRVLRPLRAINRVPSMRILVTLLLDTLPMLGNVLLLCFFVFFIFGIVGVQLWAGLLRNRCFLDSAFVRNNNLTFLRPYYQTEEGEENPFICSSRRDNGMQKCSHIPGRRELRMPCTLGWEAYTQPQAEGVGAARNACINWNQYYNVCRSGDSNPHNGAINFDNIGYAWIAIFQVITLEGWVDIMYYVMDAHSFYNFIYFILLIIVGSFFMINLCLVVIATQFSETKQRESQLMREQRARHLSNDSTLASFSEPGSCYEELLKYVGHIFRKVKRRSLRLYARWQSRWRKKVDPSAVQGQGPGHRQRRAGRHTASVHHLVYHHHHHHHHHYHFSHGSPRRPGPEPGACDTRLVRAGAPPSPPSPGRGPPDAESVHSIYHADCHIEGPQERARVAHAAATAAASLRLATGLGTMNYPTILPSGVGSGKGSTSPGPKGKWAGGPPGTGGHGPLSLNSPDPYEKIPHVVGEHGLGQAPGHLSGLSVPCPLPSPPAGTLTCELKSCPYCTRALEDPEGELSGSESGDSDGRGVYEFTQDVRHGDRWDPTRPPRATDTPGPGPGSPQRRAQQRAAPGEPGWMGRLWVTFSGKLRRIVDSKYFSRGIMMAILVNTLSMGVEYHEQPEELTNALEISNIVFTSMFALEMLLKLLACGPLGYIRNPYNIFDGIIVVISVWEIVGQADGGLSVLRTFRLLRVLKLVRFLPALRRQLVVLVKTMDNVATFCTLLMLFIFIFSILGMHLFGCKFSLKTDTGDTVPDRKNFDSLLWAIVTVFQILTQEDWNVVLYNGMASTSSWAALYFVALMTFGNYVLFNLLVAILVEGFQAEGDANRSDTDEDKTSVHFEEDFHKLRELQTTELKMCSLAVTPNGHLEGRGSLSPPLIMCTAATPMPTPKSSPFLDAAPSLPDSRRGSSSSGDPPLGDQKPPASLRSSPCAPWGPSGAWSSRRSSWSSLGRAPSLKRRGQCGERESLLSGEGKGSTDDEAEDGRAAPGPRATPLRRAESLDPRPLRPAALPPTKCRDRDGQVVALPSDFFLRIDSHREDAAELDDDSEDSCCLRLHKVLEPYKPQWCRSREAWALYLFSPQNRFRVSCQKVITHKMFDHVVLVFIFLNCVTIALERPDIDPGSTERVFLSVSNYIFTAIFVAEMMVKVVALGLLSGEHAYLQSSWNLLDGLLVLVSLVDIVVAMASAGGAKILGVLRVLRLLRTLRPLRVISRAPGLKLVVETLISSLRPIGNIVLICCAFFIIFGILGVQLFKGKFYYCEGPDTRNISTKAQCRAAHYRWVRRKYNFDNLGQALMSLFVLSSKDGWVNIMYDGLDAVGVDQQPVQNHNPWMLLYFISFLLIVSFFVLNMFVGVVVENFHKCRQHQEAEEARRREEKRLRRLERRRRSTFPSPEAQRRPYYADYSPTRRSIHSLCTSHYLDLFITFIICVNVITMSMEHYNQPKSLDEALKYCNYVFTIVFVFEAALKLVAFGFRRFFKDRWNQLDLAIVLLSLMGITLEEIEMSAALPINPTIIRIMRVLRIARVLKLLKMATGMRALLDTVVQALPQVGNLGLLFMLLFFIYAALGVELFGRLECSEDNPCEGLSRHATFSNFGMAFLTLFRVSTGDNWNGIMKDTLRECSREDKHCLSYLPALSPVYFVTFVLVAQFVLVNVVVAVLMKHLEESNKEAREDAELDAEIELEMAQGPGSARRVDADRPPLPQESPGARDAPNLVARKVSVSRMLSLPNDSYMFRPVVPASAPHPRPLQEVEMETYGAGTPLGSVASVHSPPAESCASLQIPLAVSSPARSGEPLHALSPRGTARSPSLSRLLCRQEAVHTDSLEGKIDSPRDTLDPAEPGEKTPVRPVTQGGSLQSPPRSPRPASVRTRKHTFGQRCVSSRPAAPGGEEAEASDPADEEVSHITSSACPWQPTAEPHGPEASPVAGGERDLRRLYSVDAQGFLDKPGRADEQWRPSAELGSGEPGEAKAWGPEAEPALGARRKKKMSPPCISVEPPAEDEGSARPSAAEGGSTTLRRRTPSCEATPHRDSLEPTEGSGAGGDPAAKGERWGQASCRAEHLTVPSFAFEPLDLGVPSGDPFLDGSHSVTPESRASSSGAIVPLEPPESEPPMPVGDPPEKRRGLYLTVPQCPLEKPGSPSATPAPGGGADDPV

O=C(COc1ccccc1F)Nc1nnc(-c2ccc(F)cc2)o1
EC50 [1]: 10 µM (active)

Cc1ccc(Cl)cc1N1CCN(C(=O)c2cccc3c(=O)c(C)c(-c4ccccc4)oc23)CC1
EC50 [2]: 5.59 µM (active)
EC50 [3]: 16 µM (active)
EC50 [4]: 8.26 µM (active)
EC50 [5]: 9.86 µM (active)
EC50 [6]: > 150 µM (not active)
EC50 [7]: 6.68 µM (active)
EC50 [8]: > 53 µM (inactive)

O=C(O)COc1ccc2c(c1)OCCO2
IC50 [9]: > 50 µM (inactive)

NS(=O)(=O)c1cc(C(=O)Nc2cccc(Cl)c2)ccc1Cl
IC50 [10]: > 100 µM (inactive)
IC50 [11]: > 100 µM (inactive)
IC50 [12]: > 100 µM (inactive)
